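Tested at 5 concentrations; 48 h exposure; 96-well plates; endpoints linearly interpolated, else capped at highest concentration. At the TGI there is no net growth.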
How the values were obtained:
Assay in all cases: growth of human tumour cells (NCI), 48 h
[1] = system: UO-31 renal
[2] = system: HT29 colon
[3] = system: SR leukemia
[4] = system: NCI-H23 lung
[5] = system: MOLT-4 leukemia
[6] = system: CCRF-CEM leukemia
[7] = system: A498 renal
[8] = system: SNB-19 CNS
[9] = system: NCI-H460 lung
[10] = system: SK-MEL-28 melanoma
[11] = system: M19-MEL melanoma
[12] = system: TK-10 renal
[13] = system: OVCAR-5 ovarian
[14] = system: IGROV1 ovarian
[15] = system: U251 CNS
[16] = system: EKVX NSCLC
[17] = system: HL-60(TB) leukemia
[18] = system: NCI-H522 lung
[19] = system: SNB-78 CNS
[20] = system: HOP-62 NSCLC
[21] = system: UACC-257 melanoma
[22] = system: SF-268 CNS
[23] = system: DMS 114 small cell lung
[24] = system: NCI-H226 lung
[25] = system: A549 NSCLC
[26] = system: HCT-116 colon
[27] = system: HOP-92 NSCLC
[28] = system: UACC-62 melanoma
[29] = system: KM12 colon
[30] = system: DMS 273 small cell lung
[31] = system: RXF 393 renal
[32] = system: M14 melanoma
[33] = system: OVCAR-8 ovarian
[34] = system: SK-OV-3 ovarian
[35] = system: SW-620 colon
[36] = system: CAKI-1 renal
[37] = system: SF-295 CNS
[38] = system: SNB-75 CNS
[39] = system: HCC-2998 colon
[40] = system: 786-0 renal
[41] = system: OVCAR-4 ovarian
[42] = system: SF-539 CNS
[43] = system: SN12C renal
[44] = system: COLO 205 colon
[45] = system: HOP-18 NSCLC
[46] = system: LXFL 529 NSCLC
[47] = system: KM20L2 colon
[48] = system: ACHN renal
[49] = system: LOX IMVI melanoma
[50] = system: RPMI-8226 leukemia
[51] = system: SK-MEL-2 melanoma
[52] = system: SK-MEL-5 melanoma
[53] = system: OVCAR-3 ovarian
[54] = system: DLD-1 colon
[55] = system: HCT-15 colon
[56] = system: MALME-3M melanoma
[57] = system: K-562 leukemia

How did the TGI [1] turn out when `COc1ccc(OC)c2c(=O)c3ccccc3[nH]c12` was run?
The TGI was over 100 µM.

What about the TGI [2] of the same molecule?
Its TGI is over 100 µM.

What about the TGI [3] of the same molecule?
The TGI was over 100 µM.

What about the TGI [4] of the same molecule?
Its TGI is over 100 µM.

What about the TGI [5] of the same molecule?
The TGI was over 100 µM.

What about the TGI [6] of the same molecule?
Its TGI is over 100 µM.

And the TGI [7]?
Its TGI is over 100 µM.

What about the TGI [8] of the same molecule?
Its TGI is over 100 µM.

What about the TGI [9] of the same molecule?
Its TGI is over 100 µM.

And the TGI [10]?
Its TGI is over 100 µM.

And the TGI [11]?
The TGI was over 100 µM.

And the TGI [12]?
The TGI was over 100 µM.

What about the TGI [13] of the same molecule?
Its TGI is over 100 µM.

And the TGI [14]?
The TGI was over 100 µM.

What about the TGI [15] of the same molecule?
Its TGI is over 100 µM.

What about the TGI [16] of the same molecule?
Its TGI is over 100 µM.

And the TGI [17]?
Its TGI is over 100 µM.

What about the TGI [18] of the same molecule?
The TGI was over 100 µM.

And the TGI [19]?
Its TGI is over 100 µM.

What about the TGI [20] of the same molecule?
Its TGI is over 100 µM.

What about the TGI [21] of the same molecule?
Its TGI is over 100 µM.

And the TGI [22]?
The TGI was over 100 µM.

And the TGI [23]?
The TGI was over 100 µM.

And the TGI [24]?
The TGI was 94.1 µM.

And the TGI [25]?
Its TGI is over 100 µM.

And the TGI [26]?
Its TGI is over 100 µM.

What about the TGI [27] of the same molecule?
Its TGI is over 100 µM.

And the TGI [28]?
The TGI was over 100 µM.

And the TGI [29]?
The TGI was over 100 µM.

And the TGI [30]?
The TGI was over 100 µM.

What about the TGI [31] of the same molecule?
The TGI was over 100 µM.

And the TGI [32]?
The TGI was over 100 µM.

What about the TGI [33] of the same molecule?
Its TGI is over 100 µM.

And the TGI [34]?
Its TGI is over 100 µM.

Which results are given for `Cn1c(NC(=O)NC23CC4CC(CC(C4)C2)C3)nc2ccccc21`?
TGI [1]: > 100 µM; TGI [2]: > 100 µM; TGI [3]: > 100 µM; TGI [4]: > 100 µM; TGI [5]: > 100 µM; TGI [35]: > 100 µM; TGI [36]: > 100 µM; TGI [8]: > 100 µM; TGI [9]: > 100 µM; TGI [10]: > 100 µM; TGI [37]: 52.3 µM; TGI [38]: 21.1 µM; TGI [11]: > 100 µM; TGI [39]: > 100 µM; TGI [12]: > 100 µM; TGI [13]: > 100 µM; TGI [14]: > 100 µM; TGI [40]: 81.5 µM; TGI [15]: > 100 µM; TGI [41]: 28.5 µM; TGI [42]: > 100 µM; TGI [43]: > 100 µM; TGI [44]: > 100 µM; TGI [16]: > 100 µM; TGI [17]: > 100 µM; TGI [18]: > 100 µM; TGI [19]: 97 µM; TGI [45]: > 100 µM; TGI [46]: > 100 µM; TGI [47]: > 100 µM; TGI [48]: > 100 µM; TGI [20]: > 100 µM; TGI [49]: > 100 µM; TGI [21]: > 100 µM; TGI [22]: > 100 µM; TGI [50]: > 100 µM; TGI [24]: > 100 µM; TGI [25]: > 100 µM; TGI [26]: > 100 µM; TGI [27]: 90.6 µM; TGI [28]: > 100 µM; TGI [51]: > 100 µM; TGI [29]: > 100 µM; TGI [30]: > 100 µM; TGI [52]: > 100 µM; TGI [53]: > 100 µM; TGI [31]: 57.4 µM; TGI [54]: > 100 µM; TGI [55]: > 100 µM; TGI [32]: > 100 µM; TGI [33]: > 100 µM; TGI [56]: 81.6 µM; TGI [57]: > 100 µM; TGI [34]: 51.8 µM

— PubChem BioAssay (NCI)
